Here are results for four compounds from ChEMBL document CHEMBL4007467, “Effects of 6-paradol, an unsaturated ketone from gingers, on cytochrome P450-mediated drug metabolism” (Bioorg Med Chem Lett, 2017).

What all share (assay type): ADME
Assay [1] has as its target T1, Cytochrome P450 2C19 (Homo sapiens, UniProt P33261). Description: Inhibition of CYP2C19 in human liver microsomes using (S)-mephenytoin as substrate preincubated for 10 mins followed by NADPH addition measured after 40 mins.
In assay [2] the target is T2, Cytochrome P450 3A4 (Homo sapiens, UniProt P08684). Description: Inhibition of recombinant human CYP3A4 expressed in baculosomes using Vivid BOMR substrate red measured every 30 sec for 30 mins by fluorescence assay.
Assay [3] has as its target T3, Cytochrome P450 2D6 (Homo sapiens, UniProt P10635). Kind of assay: Inhibition of CYP2D6 in human liver microsomes using dextromethorphan as substrate preincubated for 10 mins followed by NADPH addition measured after 15 mins.
In assay [4] the target is T2, Cytochrome P450 3A4. Description: Inhibition of CYP3A4 in human liver microsomes using testosterone as substrate preincubated for 10 mins followed by NADPH addition measured after 10 mins.
A further assay concerns the target T4, Cytochrome P450 2A6 (Homo sapiens, UniProt P11509).
T4 sequence (P11509 whole entry): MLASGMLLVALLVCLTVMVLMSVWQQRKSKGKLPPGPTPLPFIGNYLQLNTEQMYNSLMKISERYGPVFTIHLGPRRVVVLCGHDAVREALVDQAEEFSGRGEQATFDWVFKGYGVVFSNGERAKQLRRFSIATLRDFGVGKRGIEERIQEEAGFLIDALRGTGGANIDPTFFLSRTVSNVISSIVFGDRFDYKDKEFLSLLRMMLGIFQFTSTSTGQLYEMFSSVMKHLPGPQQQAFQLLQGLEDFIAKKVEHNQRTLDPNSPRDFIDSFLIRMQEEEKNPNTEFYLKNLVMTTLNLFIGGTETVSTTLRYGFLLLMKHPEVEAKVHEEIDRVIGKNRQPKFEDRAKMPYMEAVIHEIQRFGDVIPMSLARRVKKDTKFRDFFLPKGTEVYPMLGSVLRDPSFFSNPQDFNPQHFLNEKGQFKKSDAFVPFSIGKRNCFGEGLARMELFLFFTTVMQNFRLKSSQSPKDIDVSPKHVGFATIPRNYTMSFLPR
Description: Inhibition of CYP2A6 in human liver microsomes using Coumarin as substrate preincubated for 10 mins followed by NADPH addition measured after 15 mins.

Assay [5] has as its target T5, Cytochrome P450 2C9 (Homo sapiens, UniProt P11712). Description: Inhibition of CYP2C9 in human liver microsomes using diclofenac as substrate preincubated for 10 mins followed by NADPH addition measured after 7 mins.
Assay [6] addresses T2, Cytochrome P450 3A4. Kind of assay: Inhibition of recombinant human CYP3A4 expressed in baculosomes using Vivid DBOMF substrate green measured every 30 sec for 30 mins by fluorescence assay.
Assay [7] has as its target T2, Cytochrome P450 3A4. Description: Inhibition of recombinant human CYP3A4 expressed in baculosomes using Vivid BOMCC substrate blue measured every 30 sec for 30 mins by fluorescence assay.
Assay [8] addresses T6, Cytochrome P450 1A2 (Homo sapiens, UniProt P05177).
T6 sequence (P05177 whole entry): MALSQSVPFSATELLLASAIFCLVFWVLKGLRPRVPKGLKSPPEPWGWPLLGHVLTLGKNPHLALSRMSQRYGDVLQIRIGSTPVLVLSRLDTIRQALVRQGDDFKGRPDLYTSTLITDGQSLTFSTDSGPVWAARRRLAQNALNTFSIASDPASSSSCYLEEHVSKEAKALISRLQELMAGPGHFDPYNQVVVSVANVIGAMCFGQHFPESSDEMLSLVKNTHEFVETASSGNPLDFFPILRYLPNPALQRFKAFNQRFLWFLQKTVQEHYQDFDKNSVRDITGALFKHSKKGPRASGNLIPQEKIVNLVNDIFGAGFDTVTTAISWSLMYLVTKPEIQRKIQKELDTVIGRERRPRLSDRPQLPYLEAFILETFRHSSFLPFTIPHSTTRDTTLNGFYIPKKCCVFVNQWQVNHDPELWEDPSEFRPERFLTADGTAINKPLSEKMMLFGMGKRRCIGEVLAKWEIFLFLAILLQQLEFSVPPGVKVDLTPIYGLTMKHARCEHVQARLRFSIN
Kind of assay: Inhibition of CYP1A2 in human liver microsomes using phenacetin as substrate preincubated for 10 mins followed by NADPH addition measured after 10 mins.

Assay [9] deals with T7, Cytochrome P450 2E1 (Homo sapiens, UniProt P05181). Kind of assay: Inhibition of CYP2E1 in human liver microsomes using chlorzoxazone as substrate preincubated for 10 mins followed by NADPH addition measured after 20 mins.
For a further assay, the target named is T8, Cytochrome P450 2B6 (Homo sapiens, UniProt P20813).
T8 sequence (P20813 whole entry): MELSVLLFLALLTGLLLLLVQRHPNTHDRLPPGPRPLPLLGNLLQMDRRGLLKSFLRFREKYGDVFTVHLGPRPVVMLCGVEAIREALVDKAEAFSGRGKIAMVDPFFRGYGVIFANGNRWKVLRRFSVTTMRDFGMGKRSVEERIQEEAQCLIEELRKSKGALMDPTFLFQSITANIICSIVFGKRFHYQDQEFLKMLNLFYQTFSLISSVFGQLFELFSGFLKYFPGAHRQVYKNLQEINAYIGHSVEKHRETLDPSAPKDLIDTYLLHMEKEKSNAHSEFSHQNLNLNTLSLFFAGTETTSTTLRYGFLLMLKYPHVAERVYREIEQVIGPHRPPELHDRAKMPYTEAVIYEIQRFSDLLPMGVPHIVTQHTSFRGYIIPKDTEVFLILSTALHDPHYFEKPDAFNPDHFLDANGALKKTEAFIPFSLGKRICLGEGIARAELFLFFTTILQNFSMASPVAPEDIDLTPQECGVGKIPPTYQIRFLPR
Description: Inhibition of CYP2B6 in human liver microsomes using bupropion as substrate preincubated for 10 mins followed by NADPH addition measured after 20 mins.

Assay [10] deals with T5, Cytochrome P450 2C9. Kind of assay: Inhibition of recombinant human CYP2C9 expressed in baculosomes using Vivid OOMR substrate red measured every 30 sec for 30 mins by fluorescence assay.
Another assay addresses T9, Cytochrome P450 2C8 (Homo sapiens, UniProt P10632).
T9 sequence (P10632 whole entry): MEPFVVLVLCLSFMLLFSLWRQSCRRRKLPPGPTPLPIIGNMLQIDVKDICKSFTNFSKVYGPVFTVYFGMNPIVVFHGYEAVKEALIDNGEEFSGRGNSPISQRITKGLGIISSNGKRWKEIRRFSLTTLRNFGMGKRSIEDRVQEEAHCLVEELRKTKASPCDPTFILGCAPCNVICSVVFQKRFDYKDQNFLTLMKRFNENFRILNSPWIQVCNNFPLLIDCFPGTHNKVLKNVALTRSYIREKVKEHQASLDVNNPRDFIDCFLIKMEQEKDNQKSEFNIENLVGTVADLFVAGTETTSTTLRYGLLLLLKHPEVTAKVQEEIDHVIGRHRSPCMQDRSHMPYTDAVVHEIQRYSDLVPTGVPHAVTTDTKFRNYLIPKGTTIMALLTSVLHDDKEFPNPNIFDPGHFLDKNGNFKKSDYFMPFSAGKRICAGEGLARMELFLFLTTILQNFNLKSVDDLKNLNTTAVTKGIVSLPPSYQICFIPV
Description: Inhibition of CYP2C8 in human liver microsomes using amodiaquin as substrate preincubated for 10 mins followed by NADPH addition measured after 10 mins.

Assay [11] addresses T1, Cytochrome P450 2C19. Description: Inhibition of recombinant human CYP2C19 expressed in baculosomes using Vivid EOMCC substrate blue measured every 30 sec for 30 mins by fluorescence assay.
For assay [12], the target named is T3, Cytochrome P450 2D6. Description: Inhibition of recombinant human CYP2D6 expressed in baculosomes using Vivid EOMCC substrate blue measured every 30 sec for 30 mins by fluorescence assay.
The target in assay [13] is T2, Cytochrome P450 3A4. Kind of assay: Inhibition of CYP3A4 in human liver microsomes using midazolam as substrate.
In assay [14] the target is T6, Cytochrome P450 1A2. Description: Inhibition of CYP1A2 in human liver microsomes using phenacetin as substrate by HPLC analysis.
For assay [15], the target named is T2, Cytochrome P450 3A4. Description: Inhibition of CYP3A4 in human liver microsomes using midazolam as substrate preincubated for 10 mins followed by NADPH addition measured after 5 mins.
For assay [16], the target named is T1, Cytochrome P450 2C19. Description: Inhibition of CYP2C19 in human liver microsomes using (S)-mephenytoin as substrate by HPLC analysis.
Assay [17] deals with T5, Cytochrome P450 2C9. Description: Inhibition of CYP2C9 in human liver microsomes using tolbutamide as substrate by HPLC analysis.
Assay [18] concerns the target T7, Cytochrome P450 2E1. Kind of assay: Inhibition of CYP2E1 in human liver microsomes using chlorzoxazone as substrate by HPLC analysis.

T3 sequence (P10635 whole entry): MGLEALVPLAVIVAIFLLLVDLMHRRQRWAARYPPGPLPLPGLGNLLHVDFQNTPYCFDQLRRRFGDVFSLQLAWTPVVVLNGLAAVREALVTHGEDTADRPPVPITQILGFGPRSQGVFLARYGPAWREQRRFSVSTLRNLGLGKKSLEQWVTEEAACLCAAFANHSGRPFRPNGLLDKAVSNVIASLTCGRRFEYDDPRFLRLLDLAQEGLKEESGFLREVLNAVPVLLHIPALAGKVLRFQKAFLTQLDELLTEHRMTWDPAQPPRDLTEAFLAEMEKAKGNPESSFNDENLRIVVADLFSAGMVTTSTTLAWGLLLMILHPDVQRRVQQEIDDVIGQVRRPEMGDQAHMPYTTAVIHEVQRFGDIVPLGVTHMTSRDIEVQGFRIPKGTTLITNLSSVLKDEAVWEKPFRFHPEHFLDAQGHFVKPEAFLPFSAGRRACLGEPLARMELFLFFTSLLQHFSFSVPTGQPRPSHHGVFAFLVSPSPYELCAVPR
T1 sequence (P33261 whole entry): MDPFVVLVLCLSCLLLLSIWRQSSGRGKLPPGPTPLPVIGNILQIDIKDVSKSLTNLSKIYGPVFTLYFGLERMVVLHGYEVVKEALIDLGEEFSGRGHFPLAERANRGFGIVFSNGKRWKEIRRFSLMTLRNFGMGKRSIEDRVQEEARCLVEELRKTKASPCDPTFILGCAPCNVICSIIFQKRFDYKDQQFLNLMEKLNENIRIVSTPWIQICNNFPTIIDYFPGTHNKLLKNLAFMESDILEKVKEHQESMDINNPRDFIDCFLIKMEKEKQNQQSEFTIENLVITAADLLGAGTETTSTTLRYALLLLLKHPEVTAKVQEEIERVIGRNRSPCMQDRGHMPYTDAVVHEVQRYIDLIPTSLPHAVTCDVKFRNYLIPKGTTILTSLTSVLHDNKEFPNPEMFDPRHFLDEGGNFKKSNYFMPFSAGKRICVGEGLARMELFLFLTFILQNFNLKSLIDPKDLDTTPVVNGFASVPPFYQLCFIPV
T5 sequence (P11712 whole entry): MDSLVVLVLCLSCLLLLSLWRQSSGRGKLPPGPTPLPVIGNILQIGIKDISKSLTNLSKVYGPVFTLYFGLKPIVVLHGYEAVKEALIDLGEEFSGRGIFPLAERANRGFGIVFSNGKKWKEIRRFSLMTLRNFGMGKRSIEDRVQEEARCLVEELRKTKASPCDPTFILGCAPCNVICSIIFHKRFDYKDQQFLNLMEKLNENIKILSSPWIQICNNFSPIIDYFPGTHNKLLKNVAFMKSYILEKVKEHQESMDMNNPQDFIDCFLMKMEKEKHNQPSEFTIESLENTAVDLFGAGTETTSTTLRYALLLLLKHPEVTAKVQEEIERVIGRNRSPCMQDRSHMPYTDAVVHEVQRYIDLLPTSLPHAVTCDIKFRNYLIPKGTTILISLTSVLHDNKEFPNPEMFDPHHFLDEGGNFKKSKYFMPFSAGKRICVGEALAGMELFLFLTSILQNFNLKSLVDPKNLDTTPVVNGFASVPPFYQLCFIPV
T2 sequence (P08684 whole entry): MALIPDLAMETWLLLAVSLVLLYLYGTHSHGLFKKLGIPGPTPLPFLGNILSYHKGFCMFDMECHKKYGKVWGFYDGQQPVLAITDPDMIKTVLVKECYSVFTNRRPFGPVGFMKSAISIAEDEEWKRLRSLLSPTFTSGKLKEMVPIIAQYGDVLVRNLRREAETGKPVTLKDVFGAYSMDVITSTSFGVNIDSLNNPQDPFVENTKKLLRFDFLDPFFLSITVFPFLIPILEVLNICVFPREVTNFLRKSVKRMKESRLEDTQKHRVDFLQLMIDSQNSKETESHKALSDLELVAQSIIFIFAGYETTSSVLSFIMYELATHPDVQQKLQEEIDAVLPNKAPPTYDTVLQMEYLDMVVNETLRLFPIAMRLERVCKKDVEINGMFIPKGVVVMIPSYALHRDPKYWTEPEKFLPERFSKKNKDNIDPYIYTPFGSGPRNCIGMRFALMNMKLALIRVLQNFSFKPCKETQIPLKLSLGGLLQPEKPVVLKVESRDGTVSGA
T7 sequence (P05181 whole entry): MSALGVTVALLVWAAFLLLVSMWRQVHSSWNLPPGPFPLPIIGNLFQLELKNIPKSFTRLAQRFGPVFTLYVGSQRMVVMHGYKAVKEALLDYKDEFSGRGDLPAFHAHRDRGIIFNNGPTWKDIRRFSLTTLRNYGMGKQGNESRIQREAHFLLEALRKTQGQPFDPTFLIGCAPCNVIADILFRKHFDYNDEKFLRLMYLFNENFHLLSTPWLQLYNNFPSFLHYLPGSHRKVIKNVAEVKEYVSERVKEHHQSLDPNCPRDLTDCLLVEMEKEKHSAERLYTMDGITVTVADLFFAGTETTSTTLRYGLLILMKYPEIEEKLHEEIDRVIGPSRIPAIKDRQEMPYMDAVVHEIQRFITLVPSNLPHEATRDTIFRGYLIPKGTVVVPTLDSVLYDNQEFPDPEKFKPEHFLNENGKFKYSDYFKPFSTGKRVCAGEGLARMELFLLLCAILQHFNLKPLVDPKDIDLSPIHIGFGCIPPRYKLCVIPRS

As for `CCCCCCC[C@H](O)CC(=O)CCc1ccc(O)c(OC)c1`, the IC50 at Cytochrome P450 2C19 [1] was determined as 8.1 µM; at Cytochrome P450 3A4 [2] it was 10.5 µM; at Cytochrome P450 2D6 [3], 74.5 µM; against Cytochrome P450 3A4 [4] it was 8.1 µM; on Cytochrome P450 2A6, 59 µM; on Cytochrome P450 2C9 [5], 8.7 µM. Also, the half-inhibitory concentration (IC50) on Cytochrome P450 3A4 [6] amounted to 11.6 µM; on Cytochrome P450 3A4 [7] it was 8.7 µM; against Cytochrome P450 1A2 [8] it was 27.3 µM; against Cytochrome P450 2E1 [9], 93.2 µM; at Cytochrome P450 2B6, 8.1 µM; at Cytochrome P450 2C9 [10], 6.8 µM. The IC50 is 2200 nM at Cytochrome P450 2C8, 12.5 µM at Cytochrome P450 2C19 [11] and 42.7 µM on Cytochrome P450 2D6 [12].

On to `CCCCCCCCC[C@H](O)CC(=O)CCc1ccc(O)c(OC)c1`, for which the IC50 is 6.6 µM on Cytochrome P450 2C19 [1]; 24.9 µM at Cytochrome P450 3A4 [2]; 54.9 µM against Cytochrome P450 2D6 [3]; 7.1 µM against Cytochrome P450 3A4 [4]; 98.3 µM on Cytochrome P450 2A6; 7.5 µM against Cytochrome P450 2C9 [5]. For the same compound, the IC50 was 21.8 µM on Cytochrome P450 3A4 [6]; 20.8 µM on Cytochrome P450 3A4 [7]; 4.3 µM against Cytochrome P450 2B6; 16.3 µM on Cytochrome P450 2C9 [10]; 2000 nM on Cytochrome P450 2C8; 13.6 µM on Cytochrome P450 2C19 [11].

`CCCCC[C@H](O)CC(=O)CCc1ccc(O)c(OC)c1` [GINGEROL]: the IC50 against Cytochrome P450 3A4 [13] came out at 73.4 µM; at Cytochrome P450 3A4 [2] it was 42.9 µM; at Cytochrome P450 3A4 [6], 32 µM; at Cytochrome P450 3A4 [7], 21.8 µM; against Cytochrome P450 2B6, 40.8 µM; at Cytochrome P450 2C9 [10], 12.1 µM. Also, the IC50 at Cytochrome P450 2C19 [11] is 30.7 µM.

For `CCCCC/C=C/C(=O)CCc1ccc(O)c(OC)c1` [SHOGAOL], the IC50 at Cytochrome P450 3A4 [2] came out at 4 µM; against Cytochrome P450 2D6 [3], 87 µM; on Cytochrome P450 3A4 [4], 8.3 µM; at Cytochrome P450 2A6, 83.3 µM; against Cytochrome P450 2C9 [5], 3.3 µM; at Cytochrome P450 1A2 [14], 20.7 µM. Also, the half-maximal inhibitory concentration (IC50) against Cytochrome P450 3A4 [15] stood at 65.2 µM; against Cytochrome P450 1A2 [8] it was 2.5 µM; on Cytochrome P450 2E1 [9] it was 76.1 µM; at Cytochrome P450 2C19 [16], 18.8 µM; at Cytochrome P450 2B6 it was 5.8 µM; against Cytochrome P450 2C9 [17] it was 29.2 µM. The IC50 worked out at 2900 nM against Cytochrome P450 2C8 and 99.6 µM on Cytochrome P450 2E1 [18].
